Patent US20230374035A1, “RAS INHIBITORS” (Revolution Medicines, Inc., priority 2019, published 2023)
Read-outs that look alike come from different tables or passages of the source.

Columns and labels:
KRAS G12C = KRAS G12C (Homo sapiens, UniProt P01116+P62937, G12C); assay: Disruption of BRAF RBD interaction with K-Ras (FRET / MOA assay); assay type: biochemical; conditions: read-out: KRAS G12C FRET data IC50
Procedure: (§1) Compound is present in plate wells as a 10-point 3-fold dilution series starting at a final concentration of 30 μM. […] Compounds that facilitate disruption of a Ras:RAF complex are identified as those eliciting a decrease in the TR-FRET ratio relative to DMSO control wells.
(§2) Note—The following protocol describes a procedure for monitoring disruption of K-Ras G12C (GMP-PNP) binding to BRAF^RBD by a compound of the invention. This protocol may also be executed substituting other Ras proteins or nucleotides.
(§3) The purpose of this biochemical assay was to measure the ability of test compounds to facilitate ternary complex formation between a nucleotide-loaded K-Ras isoform and Cyclophilin A; the resulting ternary complex disrupts binding to a BRAF^RBD construct, inhibiting K-Ras signaling through a RAF effector. Data is reported as IC50 values.
(§4) Compound was present in plate wells as a 10-point 3-fold dilution series starting at a final concentration of 30 μM. […] Compounds that facilitate disruption of a K-Ras:RAF complex were identified as those eliciting a decrease in the TR-FRET ratio relative to DMSO control wells.

NRAS G12C = NRAS G12C (Homo sapiens, UniProt P01111+P62937, G12C); assay: Disruption of BRAF RBD interaction with Ras (FRET / MOA assay); assay type: biochemical
Sequence of NRAS G12C (P01111 whole entry G12C): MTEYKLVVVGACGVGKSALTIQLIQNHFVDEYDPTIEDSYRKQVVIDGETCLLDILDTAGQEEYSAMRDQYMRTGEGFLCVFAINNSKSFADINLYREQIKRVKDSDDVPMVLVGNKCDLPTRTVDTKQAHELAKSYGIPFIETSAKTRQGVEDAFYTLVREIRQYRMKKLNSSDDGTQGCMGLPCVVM
Sequence of NRAS G12C (P62937 whole entry): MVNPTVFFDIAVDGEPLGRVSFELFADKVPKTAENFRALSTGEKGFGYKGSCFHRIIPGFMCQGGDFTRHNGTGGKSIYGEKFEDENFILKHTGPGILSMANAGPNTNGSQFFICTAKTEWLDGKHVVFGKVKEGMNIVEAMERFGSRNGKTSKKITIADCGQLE
How it was run: (§5)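 Test compounds drive ternary complex formation between nucleotide-loaded Ras and Cyclophilin A, which disrupts Ras binding to a BRAF^RBD construct. Compound was tested as a 10-point 3-fold dilution series from 30 μM final. IC50 was derived from the decrease in TR-FRET ratio relative to DMSO control wells.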

KRAS G12V = KRAS G12V (Homo sapiens, UniProt P01116+P62937, G12V); assay: Disruption of BRAF RBD interaction with K-Ras (FRET / MOA assay); assay type: biochemical; conditions: read-out: KRAS G12V FRET data IC50
Sequence of KRAS G12V (P01116 1-188 isoform P01116-2 G12V): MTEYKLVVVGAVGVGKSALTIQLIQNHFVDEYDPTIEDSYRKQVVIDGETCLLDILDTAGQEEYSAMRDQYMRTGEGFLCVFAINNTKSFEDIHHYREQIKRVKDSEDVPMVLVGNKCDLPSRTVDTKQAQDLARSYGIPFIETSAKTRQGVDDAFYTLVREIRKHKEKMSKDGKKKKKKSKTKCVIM
Sequence of KRAS G12V (P62937 whole entry): as the sequence (P62937 whole entry) above
Procedure: as §1, §2, §3, §4

KRAS G13C = KRAS G13C (Homo sapiens, UniProt P01116+P62937, G13C); assay: as above; assay type: biochemical; conditions: read-out: KRAS G13C FRET data IC50
Sequence of KRAS G13C (P01116 1-188 isoform P01116-2 G13C): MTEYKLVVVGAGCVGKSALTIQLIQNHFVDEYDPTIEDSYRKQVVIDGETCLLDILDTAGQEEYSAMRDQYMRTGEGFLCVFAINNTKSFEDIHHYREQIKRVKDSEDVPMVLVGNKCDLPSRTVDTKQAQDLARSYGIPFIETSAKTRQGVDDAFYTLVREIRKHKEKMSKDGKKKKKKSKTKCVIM
Sequence of KRAS G13C (P62937 whole entry): as the sequence (P62937 whole entry) above
Procedure: as §1, §2, §3, §4

NCI-H358 (K-Ras G12C) = assay: CellTiter-Glo Cell Viability Assay; assay type: cell-based; conditions: Homo sapiens, NCI-H358, 120 h; H358, 5-day treatment
NRAS Q61K = NRAS Q61K (Homo sapiens, UniProt P01111+P62937, Q61K); assay: Disruption of BRAF RBD interaction with Ras (FRET / MOA assay); assay type: biochemical; conditions: read-out: NRAS Q61K FRET data IC50
Sequence of NRAS Q61K (P01111 whole entry Q61K): as the sequence (P01111 whole entry G12C) above, with C12G, Q61K counted along it
Sequence of NRAS Q61K (P62937 whole entry): as the sequence (P62937 whole entry) above
How it was run: as §5

NRAS Q61R = NRAS Q61R (Homo sapiens, UniProt P01111+P62937, Q61R); assay: as above; assay type: biochemical; conditions: read-out: NRAS Q61R FRET data IC50
Sequence of NRAS Q61R (P01111 whole entry Q61R): as the sequence (P01111 whole entry G12C) above, with C12G, Q61R counted along it
Sequence of NRAS Q61R (P62937 whole entry): as the sequence (P62937 whole entry) above
How it was run: as §5

Capan-1 (K-Ras G12V) = assay: CellTiter-Glo Cell Viability Assay; assay type: cell-based; conditions: Homo sapiens, 120 h; Capan-1, 5-day treatment
SWi573 = conditions: cited from earlier work
[1] = test system: Capan-2 KRASG12V/wt xenograft model; assay: Tumor growth in Capan-2 CDX model; assay type: in vivo, BALB/c nude mice; conditions: Compound A 100 mg/kg po bid daily, RMC-4550 20 mg/kg po every other day
Procedure: Capan-2 cells were implanted in 50% Matrigel. Animals were randomized and treatment was initiated at average tumor volume of ˜180 mm3. […] Ns=no significance; ***p<0.001 by one-way ANOVA.
Once tumors reached an average size of ˜180 mm3, mice were randomized to treatment groups to start the administration of test articles or vehicle. […] Body weight and tumor volume (using calipers) was measured twice weekly until study endpoints.

Sequence of KRAS G12C (P01116 1-188 isoform P01116-2 G12C): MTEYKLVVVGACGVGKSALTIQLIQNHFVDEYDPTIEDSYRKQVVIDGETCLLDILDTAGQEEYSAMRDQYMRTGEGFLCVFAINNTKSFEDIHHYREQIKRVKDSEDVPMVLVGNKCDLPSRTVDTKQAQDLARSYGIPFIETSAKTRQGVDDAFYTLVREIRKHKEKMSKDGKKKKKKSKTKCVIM
Sequence of KRAS G12C (P62937 whole entry): as the sequence (P62937 whole entry) above

Compound: CC(C)[Si](Oc1cc2cc(c1)-c1ccc3[nH]c(I)c(c3c1)CC(C)(C)COC(=O)[C@@H]1CCCN(N1)C(=O)[C@@H](NC(=O)OC(C)(C)C)C2)(C(C)C)C(C)C
- ring closure, yield of all isomers (from CC(C)[Si](Oc1cc(C[C@H](NC(=O)OC(C)(C)C)C(=O)N2CCC[C@@H](C(=O)O)N2)cc(-c2ccc3[nH]c(I)c(CC(C)(C)CO)c3c2)c1)(C(C)C)C(C)C, ester bond, EDCl/HOBt/DIPEA, DCM, 22.8 mM, 25.0 °C, 16.0 h): 50%

Compound: CCn1c(-c2cc(N3CCN(C(=O)OCc4ccccc4)CC3)cnc2[C@H](C)OC)c2c3cc(ccc31)-c1csc(n1)C[C@H](NC(=O)OC(C)(C)C)C(=O)N1CCC[C@H](N1)C(=O)OCC(C)(C)C2
- ring closure, yield of all isomers (from CCn1c(-c2cc(N3CCN(C(=O)OCc4ccccc4)CC3)cnc2[C@H](C)OC)c(CC(C)(C)CO)c2cc(-c3csc(C[C@H](NC(=O)OC(C)(C)C)C(=O)N4CCC[C@@H](C(=O)O)N4)n3)ccc21, ester bond, EDCl/HOBt/DIPEA, MeCN, 10.34 mM, 25.0 °C, 16.0 h): 54.8%

Compound: CCn1c(-c2cccnc2[C@H](C)OC)c2c3cc(ccc31)-c1csc(n1)C[C@H](NC(=O)OC(C)(C)C)C(=O)N1CCC[C@H](N1)C(=O)OCC(C)(C)C2
- ring closure, yield of all isomers (from CCn1c(-c2cccnc2[C@H](C)OC)c(CC(C)(C)CO)c2cc(-c3csc(C[C@H](NC(=O)OC(C)(C)C)C(=O)N4CCC[C@@H](C(=O)O)N4)n3)ccc21, ester bond, EDCl/HOBt/DIPEA, DCM, 12.65 mM, 25.0 °C, 16.0 h): 81%

Compound: CCn1c(-c2cccnc2[C@H](C)OC)c2c3cc(ccc31)-c1csc(n1)C[C@H](NC(=O)OC(C)(C)C)C(=O)N1CC[C@H](C)[C@H](N1)C(=O)OCC(C)(C)C2
- ring closure, yield of all isomers (from CCn1c(-c2cccnc2[C@H](C)OC)c(CC(C)(C)COC(=O)[C@H]2NN(C(=O)[C@H](Cc3nc(Br)cs3)NC(=O)OC(C)(C)C)CC[C@@H]2C)c2cc(B3OC(C)(C)C(C)(C)O3)ccc21, cc_pd bond, Pd(DTBpf)Cl2, K3PO4, dioxane, 17.5 mM, 60.0 °C, 1.0 h): 44.7%

Compound: CCn1c(-c2cccnc2[C@H](C)OC)c2c3cc(ccc31)-c1csc(n1)[C@@H](OC)[C@H](N(Cc1ccccc1)Cc1ccccc1)C(=O)N1CCC[C@H](N1)C(=O)OCC(C)(C)C2
- ring closure, yield of all isomers (from CCn1c(-c2cccnc2[C@H](C)OC)c(CC(C)(C)COC(=O)[C@@H]2CCCN(C(=O)[C@H]([C@H](OC)c3nc(Br)cs3)N(Cc3ccccc3)Cc3ccccc3)N2)c2cc(B3OC(C)(C)C(C)(C)O3)ccc21, cc_pd bond, Pd(DtBPF)Cl2, dioxane, 40.0 mM, 80.0 °C, 2.0 h): 44.4%

Compound: CCn1c(-c2cccnc2[C@H](C)OC)c2c3cc(ccc31)-c1cc(O)cc(c1)C[C@H](NC(=O)[C@H](C(C)C)N(C)C(=O)[C@@H]1C[C@@H]1O)C(=O)N1CCC[C@H](N1)C(=O)OCC(C)(C)C2 (atropisomer, axis not shown) [Compound A323]
- IC50 (KRAS G12C): < 10 nM
- IC50 (NRAS G12C): < 10 nM

Compound: CCn1c(-c2cccnc2[C@H](C)OC)c2c3cc(ccc31)-c1cc(O)cc(c1)C[C@H](NC(=O)[C@H](C(C)C)N(C)C(=O)[C@@H]1CN(C(=O)OC)C[C@@H]1C)C(=O)N1CCC[C@H](N1)C(=O)OCC(C)(C)C2 (atropisomer, axis not shown) [Compound A325]
- IC50 (KRAS G12C): < 10 nM
- IC50 (KRAS G12V): < 10 nM
- IC50 (KRAS G13C): < 10 nM
- IC50 (NRAS G12C): < 10 nM
- IC50 (NCI-H358 (K-Ras G12C)): < 10 nM

Compound: CCn1c(-c2cccnc2[C@H](C)OC)c2c3cc(ccc31)-c1cc(O)cc(c1)C[C@H](NC(=O)[C@H](C(C)C)N(C)C(=O)[C@H]1CCN(C(=O)C(C)(C)NC)C1)C(=O)N1CCC[C@H](N1)C(=O)OCC(C)(C)C2 (atropisomer, axis not shown) [Compound A381]
- IC50 (KRAS G13C): < 10 nM

Compound: CCn1c(-c2cc(N3CCN(C)CC3)cnc2[C@H](C)OC)c2c3cc(ccc31)-c1csc(n1)C[C@H](NC(=O)[C@H](C(C)C)N(C)C(=O)[C@@H]1OCC[C@@H]1c1ccncc1)C(=O)N1CCC[C@H](N1)C(=O)OCC(C)(C)C2 (atropisomer, axis not shown) [Compound A450]
- IC50 (NRAS Q61K): 10 to 100 nM
- IC50 (NRAS Q61R): 10 to 100 nM
- IC50 (Capan-1 (K-Ras G12V)): < 10 nM
- IC50 (NCI-H358 (K-Ras G12C)): < 10 nM

Compound: CCn1c(-c2cc(N3CCN(C)CC3)cnc2[C@H](C)OC)c2c3cc(ccc31)-c1csc(n1)C[C@H](NC(=O)[C@H](C(C)C)N(C)C(=O)N1CC(C3COC3)C1)C(=O)N1CCC[C@H](N1)C(=O)OCC(C)(C)C2 (atropisomer, axis not shown) [Compound A465]
- IC50 (NRAS Q61K): 10 to 100 nM
- IC50 (NRAS Q61R): 10 to 100 nM
- IC50 (Capan-1 (K-Ras G12V)): < 10 nM
- IC50 (NCI-H358 (K-Ras G12C)): < 10 nM

Compound: CCn1c(-c2cc(N3CCN(C)CC3)cnc2[C@H](C)OC)c2c3cc(ccc31)-c1csc(n1)C[C@H](NC(=O)[C@H](C1CCCC1)N(C)C(=O)[C@@H]1OCC[C@@H]1c1ccccc1)C(=O)N1CCC[C@H](N1)C(=O)OCC(C)(C)C2 (atropisomer, axis not shown) [Compound A593]
- IC50 (NRAS Q61R): 10 to 100 nM
- IC50 (Capan-1 (K-Ras G12V)): < 10 nM
- IC50 (NCI-H358 (K-Ras G12C)): < 10 nM

Compound: C=CC(=O)N1CCN(c2nc(=O)n(-c3c(C)ccnc3C(C)C)c3nc(-c4c(O)cccc4F)c(F)cc23)[C@@H](C)C1 [AMG510]
- sensitivity of SWi573 to inhibitor (SWi573): insensitive

Compound: Cc1nc(N2CCC3(CC2)CO[C@@H](C)[C@H]3N)c(CO)nc1-c1cccc(Cl)c1Cl [RMC-4550]
- TGI [1]: 39%
